Data: patent EP4644384A1 (Shanghai Lichun Biotech Co., Ltd., priority 2023, dated 2024)

Columns and labels:
[1] = Pharmacokinetic evaluation in ICR mice after intragastric administration (plasma, LC/MS/MS); assay type: in vivo; conditions: mouse, po, male ICR mice, i.g., 20 mg/kg; for AUC(0-t): read-out: Area under the curve AUC0-t; for half-life: read-out: Half-life T1/2 (converted); for Cmax: read-out: Plasma concentration Cmax
Procedure: Taking ICR mice as test animals, the drug concentration in plasma of ICR mice was determined by LC/MS/MS method at different times after intragastric administration (i.g.) with the compound of the present disclosure. The pharmacokinetic behavior of the compound of the present disclosure in ICR mice was studied and the pharmacokinetic characteristics thereof were evaluated.
27 male ICR mice were taken and randomly divided into three groups. The mice were provided by JOINN Laboratories (Suzhou) Co., Ltd. Before administration, the mice were fasted overnight for at least 12 hours. During the fasting and experiment, the drinking water was normal saline.
A certain amount of the compound to be tested was taken, and the test sample prepared with a final concentration of 2 mg/mL was taken for oral administration. The preparation solvent was 0.5% Tween 80 in a 0.5% methylcellulose aqueous solution. After the preparation was complete, a 1N hydrochloric acid aqueous solution was added for adjustment to a clear solution (pH 4-5).
The dosage was 20.0 mg/kg and the dosage volume was 10.0 ml/kg.
At 15 min, 30 min, 1 h, 2 h, 4 h, 6 h, 8 h, 10 h, and 24 h after administration, at least 0.2 mL was taken from the vein (3 animals at each time point) and placed in an EDTA-K2 anticoagulation test tube. The blood sample was collected and then placed in a labeled ice-water bath centrifuge tube, and the plasma was quickly separated by centrifugation. The centrifugation conditions were as follows: 4000 revolutions/minute, 10 minutes, and 4°C. The plasma was stored at -40°C or lower for later testing. Feed supply was resumed 4 hours after administration.
Determination of the content of the compound to be detected in the plasma of ICR mice: After the plasma sample was thawed at room temperature, 50 µL was taken and added to 300 µL of (200 ng/mL, acetonitrile, terfenadine) internal standard, the mixture was vortexed and uniformly mixed for 1 min and then centrifuged at 4°C at 15400 g for 10 min. The supernatant was taken and injected for LC/MS/MS analysis.
The main pharmacokinetic parameters, such as AUC, Cmax and t1/2, were calculated by non-compartmental analysis (NCA) method using WinNonlin software.

CYP11A1 [2] = target: T1, CYP11A1 (Homo sapiens, UniProt P05108); test: Pregnenolone synthesis inhibition in NCI-H295R cells (pregnenolone ELISA of culture supernatant); assay type: cell-based; conditions: 24 hours incubation, pregnenolone in culture supernatant by ELISA
T1 construct: host or cells: NCI-H295R human adrenocortical cancer cells
T1 sequence (P05108 40-521): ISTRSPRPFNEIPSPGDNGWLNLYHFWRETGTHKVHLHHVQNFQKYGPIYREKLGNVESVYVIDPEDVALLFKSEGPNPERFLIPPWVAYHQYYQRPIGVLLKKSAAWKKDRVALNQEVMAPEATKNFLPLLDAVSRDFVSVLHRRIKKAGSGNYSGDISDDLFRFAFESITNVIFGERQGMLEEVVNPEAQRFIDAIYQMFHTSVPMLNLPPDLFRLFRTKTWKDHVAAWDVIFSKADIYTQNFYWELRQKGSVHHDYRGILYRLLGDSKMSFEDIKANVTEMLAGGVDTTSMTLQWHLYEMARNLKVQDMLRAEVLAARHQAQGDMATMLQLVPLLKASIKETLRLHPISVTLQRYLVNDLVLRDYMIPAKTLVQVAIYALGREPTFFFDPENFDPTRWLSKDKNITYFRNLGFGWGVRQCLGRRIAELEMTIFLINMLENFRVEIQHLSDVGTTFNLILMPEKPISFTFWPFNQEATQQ
Excerpt: Conversion of cholesterol into pregnenolone is a first rate-limiting step in the synthesis of all steroid hormones in vertebrates. This conversion reaction involves a two-step continuous monooxygenation reaction catalyzed by the unique cytochrome P450scc (CYP11A) to produce C22-hydroxycholesterol and C20,C22-dihydroxycholesterol in order, followed by CYP11A1-catalyzed breakage of a C20-C22 carbon-carbon single bond in C20,C22-dihydroxycholesterol to produce one molecule of pregnenolone and one molecule of 4-methylvaleraldehyde. Therefore, the inhibitory effect of a compound on CYP11A1 was identified by detecting the ability of the compound to inhibit pregnenolone synthesis.
The ability of different compounds to inhibit pregnenolone biosynthesis was determined by detecting the concentration of pregnenolone (Abnova pregnenolone ELISA kit, KA1912) using enzyme-linked immunosorbent assay (ELISA), so as to detect the ability of the compounds to inhibit CYP11A1. […] In order to determine the half-maximal inhibitory concentrations (IC50) of CYP11A1 inhibition by different compounds, the compounds were added during NCI-H295R cell culture, and after incubation, the concentration of pregnenolone in the culture supernatant was determined.
95 µl of NCI-H295R cells were taken and cultured overnight with a specialized cell culture medium (Procell, CM-0399) in a 96-well culture plate in a cell incubator at 37°C and 5% CO2. 5 µl/well of a DMSO (Sigma, D8418) solution of the compounds to be tested at different concentrations was then added, followed by continued incubation for 24 hours. The final concentrations of the compounds to be tested were 1000 nM, 333.33 nM, 111.11 nM, 37.04 nM, 12.35 nM, 4.12 nM, 1.37 nM, 0.46 nM, and 0 nM. After the incubation was complete, the cells were centrifuged, 80 µl/well of the cell culture supernatant was obtained and 1 : 8 diluted with the cell culture medium, and the concentration of pregnenolone therein was then determined by ELISA method. During ELISA detection, a pregnenolone standard was used to generate a standard curve. The experiment was carried out with replicate wells. The ELISA well plate had been coated with an anti-pregnenolone rabbit polyclonal antibody. In ELISA plate strips, 50 µl/well of the diluted culture supernatant or standard solution or reference substance was added, followed by 100 µl of a pregnenolone-HRP complex solution, and the plate was incubated for 1 hour at room temperature on a plate shaker (QILINBEIER, QB-9002) at 200 rpm. Then, the plate was washed three times with a cleaning solution, with 300 µl each time, and patted dry on absorbent paper. 150 µl of a TMB substrate was added. The plate was incubated on the plate shaker for 10-15 minutes at room temperature, and 50 µl of a stop solution was then added. The absorbance was measured at 450 nm by a microplate reader (PerkinElmer, 2105). The IC50 value was calculated by using GraphPad Prism software. [formula]

CYP11A1 [3] = target: T1, CYP11A1; test: Testosterone synthesis inhibition in NCI-H295R cells (testosterone ELISA of culture supernatant); assay type: cell-based; conditions: 24 hours incubation, testosterone in culture supernatant by ELISA
Procedure: The ability of different compounds to inhibit testosterone biosynthesis was determined by detecting the concentration of testosterone (Abnova testosterone ELISA kit, KA6502) using enzyme-linked immunosorbent assay (ELISA), so as to detect the ability of the compounds to inhibit CYP11A1. In the experiment, similarly, the human adrenocortical cancer cell line NCI-H295R (Procell, CL-0399) was also used as an enzyme source. The compounds were added during NCI-H295R cell culture. After incubation, the concentration of testosterone in the culture supernatant was determined.
95 µl of NCI-H295R cells were taken and cultured overnight with a specialized cell culture medium (Procell, CM-0399) in a 96-well culture plate in a cell incubator at 37°C and 5% CO2. 5 µl/well of a DMSO (Sigma, D8418) solution of the compounds to be tested at different concentrations was then added, followed by continued incubation for 24 hours. The final concentrations of the compounds to be tested were 1000 nM, 333.33 nM, 111.11 nM, 37.04 nM, 12.35 nM, 4.12 nM, 1.37 nM, 0.46 nM, and 0 nM. After the incubation was complete, the cells were centrifuged, 80 µl/well of the cell culture supernatant was obtained, and the concentration of testosterone therein was determined by ELISA method. During ELISA detection, a testosterone standard was used to generate a standard curve. The experiment was carried out with replicate wells. The ELISA well plate had been coated with an anti-testosterone monoclonal antibody. In ELISA plate strips, 25 µl/well of the culture supernatant or standard solution or reference substance was added, followed by 200 µl of a testosterone-HRP complex solution, and the plate was incubated for 1 hour at room temperature on a plate shaker (QILINBEIER, QB-9002) at 200 rpm. Then, the plate was washed three times with a cleaning solution, with 300 µl each time, and patted dry on absorbent paper. 200 µl of a TMB substrate was added. The plate was incubated on the plate shaker for 15 minutes at room temperature, and 100 µl of a stop solution was then added. The absorbance was measured at 450 nm by a microplate reader (PerkinElmer, 2105). The IC50 value was calculated by using GraphPad Prism software. [formula]

Structure (SMILES) | AUC(0-t) [1] | half-life [1] | Cmax [1] | IC50 (CYP11A1 [2]) | IC50 (CYP11A1 [3])
CS(=O)(=O)N1CCC(COc2coc(CN3Cc4ccccc4C3)cc2=O)CC1 [Comparative Example 1, reference compound] | 4330 ng·h/mL | 1.87 h | 7950 ng/mL |  | 
CCn1c(CN2Cc3ccccc3C2)ccc(OCC2CCN(S(C)(=O)=O)CC2)c1=O [Compound 25, 1-ethyl-6-(isoindolin-2-ylmethyl)-3-((1-(methylsulfonyl)piperidine-4-yl)methoxy)pyridin-2(1H)-one] |  |  |  | 1.56 nM | 3.78 nM
CCn1c(CN2Cc3ccccc3C2)ccc(OCC2CCN(S(=O)(=O)C3CC3)CC2)c1=O [Compound 26, 3-((1-(cyclopropylsulfonyl)piperidine-4-yl)methoxy)-1-ethyl-6-(isoindolin-2-ylmethyl)pyridin-2(1H)-one] |  |  |  | 0.7 nM | 2.45 nM
CCn1c(CN2Cc3ccccc3C2)ccc(OCC2CCN(S(N)(=O)=O)CC2)c1=O [Compound 28, 4-(((1-ethyl-6-(isoindolin-2-ylmethyl)-2-oxo-1,2-dihydropyridin-3-yl)oxy)methyl)piperidine-1-sulfonamide] | 13600 ng·h/mL | 1.22 h | 5440 ng/mL | 1.18 nM | 7.02 nM
CCn1c(CN2Cc3ccccc3C2)ccc(OCC2CCN(S(=O)(=O)NS(N)(=O)=O)CC2)c1=O [Compound 30, 4-(((1-ethyl-6-(isoindolin-2-ylmethyl)-2-oxo-1,2-dihydropyridin-3-yl)oxy)methyl)-N-sulfamoylpiperidine-1-sulfonamide] |  |  |  | 0.648 nM | 4.04 nM

Other lines, results leading:

AUC(0-t) [1] | half-life [1] | Cmax [1] | IC50 (CYP11A1 [2]) | IC50 (CYP11A1 [3]) | Structure (SMILES)
9950 ng·h/mL | 0.708 h | 9720 ng/mL | 4.15 nM | 17.7 nM | Cn1c(CN2Cc3ccccc3C2)ccc(OCC2CCN(S(C)(=O)=O)CC2)c1=O [Compound 1, 6-(isoindolin-2-ylmethyl)-1-methyl-3-((1-(methylsulfonyl)piperidine-4-yl)methoxy)pyridin-2(1H)-one]
 |  |  | 1.03 nM | 40.2 nM | [2H]C([2H])([2H])n1c(CN2Cc3ccccc3C2)ccc(OCC2CCN(S(=O)(=O)C(F)(F)F)CC2)c1=O [Compound 16, 6-(isoindolin-2-ylmethyl)-1-(methyl-d3)-3-((1-((trifluoromethyl)sulfonyl)piperidine-4-yl)methoxy)pyridin-2(1H)-one]
 |  |  |  | > 1000 nM | CCn1c(CN2Cc3ccccc3C2)ccc(OCC2CCN(S(=O)(=O)O)CC2)c1=O [Compound 31, 4-(((1-ethyl-6-(isoindolin-2-ylmethyl)-2-oxo-1,2-dihydropyridin-3-yl)oxy)methyl)piperidine-1-sulfonic acid]
